Assay results reported in patent US12653190B2, “Heteroaryl-triazole compounds as pesticides” (Bayer Aktiengesellschaft, priority 2020, dated 2026).

Tests used:
Type in all cases: in vivo
[1] = test system: Rhipicephalus (Boophilus) microplus larvae (strain Parkhurst, resistant against synthetic pyrethroids); experiment: Rhipicephalus (Boophilus) microplus in-vitro contact test, larval cattle tick; conditions: 5 μg/cm^2 (=500 g/ha), after 48 hours, read-out: efficacy (larvae dead or moribund)
Experimental: Rhipicephalus (Boophilus) microplus—In-Vitro Contact Tests Larval Cattle Tick (Strain Parkhurst, Resistant Against Synthetic Pyrethroids)
(§1) 9 mg compound is solved in 1 mL acetone and diluted with acetone to the desired concentration. 250 μL of the test solution is filled in 25 mL glass test tubes and homogeneously distributed on the inner walls by rotation and tilting on a shaking device (2 h at 30 rpm). With a compound concentration of 900 ppm, an inner surface of 44.7 cm^2 and a homogeneous distribution, a dose of 5 μg/cm^2 is achieved.
After the solvent has evaporated, each test tube is filled with 20-50 cattle tick larvae (Rhipicephalus microplus), closed with a perforated lid and incubated in a horizontal position at 85% relative humidity and 27° C. in an incubator. After 48 hours efficacy is determined. The larvae are patted on the ground of the tubes and negative geotactic behavior is recorded.
An efficacy of 100% means all larvae are dead or moribund; 0% means no larvae are dead or moribund.

[2] = test system: adult cat fleas (Ctenocephalides felis); experiment: Ctenocephalides felis in-vitro contact test, adult cat flea; conditions: 5 μg/cm^2 (=500 g/ha), after 48 hours, read-out: efficacy (fleas dead or moribund)
Experimental: Ctenocephalides felis—In-Vitro Contact Tests Adult Cat Flea
as §1
(§2) After the solvent has evaporated, each test tube is filled with 5-10 adult cat fleas (Ctenocephalides felis), closed with a perforated lid and incubated in a lying position at room temperature and relative humidity. After 48 hours efficacy is determined. The fleas are patted on the ground of the tubes and are incubated on a heating plate at 45-50° C. for at most 5 minutes Immotile or uncoordinated moving fleas, which are not able to escape the heat by climbing upwards, are marked as dead or moribund.
An efficacy of 100% means all fleas are dead or moribund; 0% means no fleas are dead or moribund.

[3] = test system: adult brown dog ticks (Rhipicephalus sanguineus); experiment: Rhipicephalus sanguineus in-vitro contact test, adult brown dog ticks; conditions: 5 μg/cm^2 (=500 g/ha), after 48 hours, read-out: efficacy (ticks dead or moribund)
Experimental: Rhipicephalus sanguineus—In-Vitro Contact Tests with Adult Brown Dog Ticks
as §1
as §2, with “brown dog ticks (Rhipicephalus sanguineus),” for “cat fleas (Ctenocephalides felis),”, “ticks” for “fleas”, “ticks,” for “fleas,”
An efficacy of 100% means all ticks are dead or moribund; 0% means no ticks are dead or moribund.

[4] = test system: larvae of the banded cucumber beetle (Diabrotica balteata); experiment: Diabrotica balteata spray test; conditions: 168 h, after 7 days, wheat seeds, read-out: efficacy (seedling growth); for pest or weed control at 32 µg/disc, 100 g/ha: 100 g/ha (=32 μg/well); for pest or weed control at 160 µg/disc, 500 g/ha: 500 g/ha (=160 μg/well)
In short: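 Germinated wheat seeds on agar (5 per well) were sprayed with compound formulated in acetone/DMF and diluted in water with 1000 ppm emulsifier. Each unit was then infested with 10–20 larvae. Efficacy % was scored after 7 days as seedling growth relative to an untreated, uninfested control (100% = normal growth).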

[5] = test system: green peach aphid (Myzus persicae); experiment: Myzus persicae oral test; conditions: 120 h, after 5 days
Experimental: • Solvent: 100 parts by weight acetone
To produce a suitable preparation of active compound, 1 part by weight of active compound is mixed with the stated amount of solvent, and the concentrate is diluted with water to the desired concentration.
50 μL compound solution is filled in microtiter plates and 150 μL IPL41 insect medium (33%+15% sugar) is added to obtain a total volume of 200 μL per well. Afterwards the plates are sealed with parafilm through which a mixed population of the green peach aphid (Myzus persicae) can suck on the compound preparation.
(§3) After 5 days mortality in % is determined. 100% means all aphids have been killed and 0% means none of the aphids have been killed.

[6] = test system: larvae of the southern green stink bug (Nezara viridula); experiment: Nezara viridula spray test; conditions: 96 h, after 4 days, barley plants
In short: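 Compound in acetone/DMF was diluted in water with 1000 ppm alkylarylpolyglycol ether emulsifier. Barley plants were sprayed with it, then infested with Nezara viridula larvae. Mortality % was scored after 4 days (100% = all killed).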

[7] = test system: fall armyworm larvae (Spodoptera frugiperda); experiment: Spodoptera frugiperda spray test; conditions: in Zea mays, 168 h
In short: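 Maize leaf sections were sprayed with compound in acetone/dimethylformamide diluted in water with 1000 ppm emulsifier, dried, then infested with larvae. Mortality in % was scored after 7 days, 100% meaning all caterpillars killed.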

[8] = test system: adult mosquitoes Aedes aegypti strain MONHEIM; experiment: Aedes aegypti test (AEDSAE surface treatment & contact assay); conditions: 24 hours after contact, read-out: efficacy (mortality); for mortality at 4 mg/m2: surface concentration 4 mg/m^2, 30 minutes exposure; for mortality at 20 mg/m2: surface concentration 20 mg/m^2, 30 minutes exposure
Experimental: Aedes aegypti Test (AEDSAE Surface Treatment & Contact Assay)
(§4) • Solvent: Aceton+2000 ppm rapeseed oil methyl ester (RME)
(§5) In order to produce a sufficient, active ingredient containing solution it is necessary to solve the test compound in the solvent-mix (acetone at 2 mg/ml/RME 2000 ppm). This solution is pipetted onto a glazed tile and after evaporation of the acetone, adult mosquitoes of the species Aedes aegypti strain MONHEIM are placed onto the dried surface. The exposure time is 30 minutes.
(§6) Mortality in percent (%) is determined 24 hours after contact of the insects to the treated surface. 100% mortality means that all tested insects are dead, whereas 0% means that no insect died.

[9] = test system: adult mosquitoes Culex quinquefasciatus strain P00; experiment: Culex quinquefasciatus test (CULXFA surface treatment & contact assay); conditions: 24 hours after contact, read-out: efficacy (mortality); for mortality at 20 mg/m2: surface concentration 20 mg/m^2, 30 minutes exposure; for mortality at 4 mg/m2: surface concentration 4 mg/m^2, 30 minutes exposure
Experimental: Culex quinquefasciatus Test (CULXFA Surface Treatment & Contact Assay)
as §4
as §5, with “2 000” for “2000”, “Culex Quinquefasciatus” for “Aedes aegypti”, “P00” for “MONHEIM”, “minutes. Mortality in percent (%) is determined 24 hours after contact of the insects to the treated surface. 100% mortality means that all tested insects are dead, whereas 0% means that no insect died.” for “minutes.”

[10] = test system: adult flies Musca domestica strain WHO-N; experiment: Musca domestica test (MUSCDO surface treatment & contact assay); conditions: 24 hours after contact, read-out: efficacy (mortality); for mortality at 4 mg/m2: surface concentration 4 mg/m^2, 30 minutes exposure; for mortality at 20 mg/m2: surface concentration 20 mg/m^2, 30 minutes exposure
Experimental: Musca domestica Test (MUSCDO Surface Treatment & Contact Assay)
as §4
as §5, with “flies” for “mosquitoes”, “Musca domestica” for “Aedes aegypti”, “WHO-N” for “MONHEIM”
as §6

[11] = test system: southern root-knot nematode (Meloidogyne incognita); experiment: Meloidogyne incognita test; conditions: 20 ppm, after 14 days
Experimental: Meloidogyne incognita—Test
• Solvent: 125.0 parts by weight of acetone
To produce a suitable preparation of active compound, 1 part by weight of active compound is mixed with the stated amount of solvent, and the concentrate is diluted with water to the desired concentration. Vessels are filled with sand, a solution of the active ingredient, a suspension containing eggs and larvae of the southern root-knot nematode (Meloidogyne incognita) and salad seeds. The salad seeds germinate and the seedlings grow. Galls develop in the roots.
After 14 days the nematicidal activity is determined on the basis of the percentage of gall formation. 100% means no galls were found and 0% means the number of galls found on the roots of the treated plants was equal to that in untreated control plants.

[12] = test system: green peach aphid (Myzus persicae); experiment: Myzus persicae spray test; conditions: foliar, 120 h, after 5 days, Chinese cabbage leaf disks
Experimental: Myzus persicae—Spray Test
• Solvent: 78.0 parts by weight acetone • 1.5 parts by weight dimethylformamide • Emulsifier: alkylarylpolyglycol ether
To produce a suitable preparation of active compound, 1 part by weight of active compound is mixed with the stated amount of solvents and is diluted with water, containing an emulsifier concentration of 1000 ppm, to the desired concentration. Further test concentrations are prepared by dilution with emulsifier containing water.
Chinese cabbage (Brassica pekinensis) leaf disks infected with all instars of the green peach aphid (Myzus persicae), are sprayed with a preparation of the active ingredient of the desired concentration.
as §3

SMILES	pest or weed control at 5 µg/cm2, 5 µg/cm2 [1] [%]	pest or weed control at 5 µg/cm2, 5 µg/cm2 [2] [%]	pest or weed control at 5 µg/cm2, 5 µg/cm2 [3] [%]	pest or weed control at 32 µg/disc, 100 g/ha [4] [%]	mortality at 4 ppm [5] [%]	mortality at 100 g/ha [6] [%]	mortality at 100 g/ha [7] [%]	mortality at 4 mg/m2 [8] [%]	mortality at 20 mg/m2 [8] [%]	mortality at 20 mg/m2 [9] [%]	mortality at 4 mg/m2 [10] [%]	mortality at 20 mg/m2 [10] [%]	nematicidal activity (gall formation) [11] [%]	mortality at 100 g/ha [12] [%]	mortality at 500 g/ha [6] [%]	mortality at 4 mg/m2 [9] [%]	pest or weed control at 160 µg/disc, 500 g/ha [4] [%]	mortality at 20 ppm ([5]; 20 ppm) [%]	mortality at 500 g/ha [7] [%]
C[C@H](NC(=O)c1cc(Cl)cc(C(=O)C2CC2)c1)c1ncnn1-c1ccc(C#N)cn1 [Example I-35]	100	100	80	100	100	100	100	80 to 100	80 to 100	80 to 100	80 to 100	80 to 100	–	–	–	–	–	–	–
COc1nc([C@H](C)NC(=O)c2cc(Cl)cc(C(C)(C)C#N)c2)n(-c2ccc(C#N)cn2)n1 [Example I-39]	–	–	–	100	–	–	100	–	–	–	–	–	100	–	–	–	–	–	–
C[C@H](NC(=O)c1cc(OCC2CC2(Cl)Cl)cc(C(F)(F)F)c1)c1ncnn1-c1ccc(C#N)cn1 (stereo partly shown) [Example I-29]	–	–	–	100	90	–	–	–	–	–	–	–	–	–	–	–	–	–	–
C[C@H](NC(=O)c1cc(C(F)(F)F)cc(C(C)(C)C#N)c1)c1ncnn1-c1ncc(C#N)s1 [Example I-44, 3-(1-Cyano-1-methyl-ethyl)-N-[(1S)-1-[2-(5-cyanothiazol-2-yl)-1,2,4-triazol-3-yl]ethyl]-5-(trifluoromethyl)benzamide]	100	100	80	–	–	100	100	80 to 100	80 to 100	80 to 100	80 to 100	80 to 100	–	100	100	80 to 100	–	–	–
C[C@H](NC(=O)c1cc(C(F)(F)F)cc(C(C)(C)C#N)c1)c1ncnn1-c1ccc(C#N)cn1 [Example I-42]	100	80	80	100	–	100	100	80 to 100	80 to 100	80 to 100	80 to 100	80 to 100	–	100	100	80 to 100	–	–	–
C[C@H](NC(=O)c1cc(Cl)cc(OC(C)(C)C#N)c1)c1ncnn1-c1ncc(C#N)s1 [Example I-61]	–	–	–	100	–	–	100	–	–	–	–	–	90	–	–	–	–	–	–
C[C@H](NC(=O)c1cc(OCC2CC2(Cl)Cl)cc(C(F)(F)F)c1)c1ncnn1-c1ncc(C#N)s1 (stereo partly shown) [Example I-30]	–	80	–	100	90	–	–	–	–	–	–	–	–	–	–	–	–	–	–
C[C@H](NC(=O)c1cc(OC[S+](C)[O-])cc(C(F)(F)F)c1)c1ncnn1-c1ccc(C#N)cn1 (stereo partly drawn) [Example I-27, N-{(1S)-1-[1-(5-Cyanopyridin-2-yl)-1H-1,2,4-triazol-5-yl]ethyl}-3-[(methylsulfinyl)methoxy]-5-(trifluoromethyl)benzamide]	100	–	–	100	100	100	100	80 to 100	80 to 100	–	–	–	–	90	100	–	100	100	100
C[C@H](NC(=O)c1cc(OCC(Cl)=C(Cl)Cl)cc(C(F)(F)F)c1)c1ncnn1-c1ncc([N+](=O)[O-])s1 [Example I-34]	–	–	–	–	90	–	–	–	–	–	–	–	–	–	–	–	–	–	–
C[C@H](NC(=O)c1cc(OCC(Cl)=C(Cl)Cl)cc(C(F)(F)F)c1)c1ncnn1-c1ccc(C#N)cn1 [Example I-24]	–	–	–	100	–	–	100	–	–	–	–	–	90	–	–	–	100	–	100
C[C@H](NC(=O)c1cc(Cl)cc(C(C)(C)C#N)c1)c1ncnn1-c1ccc(C#N)cn1 [Example I-33, 3-Chloro-5-(2-cyanopropan-2-yl)-N-{(1S)-1-[1-(5-cyanopyridin-2-yl)-1H-1,2,4-triazol-5-yl]ethyl}benzamide]	100	80	100	100	100	–	100	80 to 100	80 to 100	80 to 100	80 to 100	80 to 100	–	–	–	–	–	–	–
